Experimental findings from PubChem BioAssay AID270 (DTP/NCI, 2004) are described below.

This assay deals with BDF1 mice, s.c. Lewis lung carcinoma, T/C %. As to the kind of experiment: NCI In Vivo Anticancer Drug Screen. Data for tumor model Lewis Lung Carcinoma (subcutaneous) in B6D2F1 (BDF1) mice. In outline:
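First, mice carry a transplantable tumor. Next, groups receive either compound or vehicle. Finally, survival or tumor dimensions in the dosed animals are divided by the corresponding control figure.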

Where [1] appears, read: endpoint: median survival time, dose: 3.0 mg/kg/injection, schedule: Q01DX009 (ip), vehicle: Klucel (hydroxypropylcellulose) (HPC), higher = longer survival.
[2] abbreviates: endpoint: median survival time, dose: 6.25 mg/kg/injection, schedule: Q01DX009 (ip), vehicle: Klucel (hydroxypropylcellulose) (HPC), higher = longer survival.
Where [3] appears, read: endpoint: median survival time, dose: 100.0 mg/kg/injection, schedule: Q01DX009 (ip), vehicle: saline, higher = longer survival.

Values joined by “and” are separate entries in the source; they are usually repeats but may differ in a detail not shown here. Equal entries are not always repeated. Inconclusive results are not listed.

As to `CC1CCC[N-]C1.CC1CCC[N-]C1.CC1CCC[N-]C1.CC1CCC[N-]C1.[Cl][Rh][Cl]` (centres undefined), the T/C is, setting by setting: under setting [1], 102 % of control; (endpoint: median survival time, dose: 6.0 mg/kg/injection, schedule: Q01DX009 (ip), vehicle: Klucel (hydroxypropylcellulose) (HPC), higher = longer survival) 91 % of control.

`COC(=O)Nc1nc2ccc(C(=O)c3ccccc3)cc2[nH]1`: the T/C (endpoint: median survival time, dose: 2.0 mg/kg/injection, schedule: Q04DX003 (ip), vehicle: saline with Tween-80, higher = longer survival) is 89 % of control; the T/C (endpoint: median survival time, dose: 4.0 mg/kg/injection, schedule: Q04DX003 (ip), vehicle: saline with Tween-80, higher = longer survival) is 95 % of control; the T/C (endpoint: median survival time, dose: 8.0 mg/kg/injection, schedule: Q04DX003 (ip), vehicle: saline with Tween-80, higher = longer survival) is 98 % of control; the T/C (endpoint: median survival time, dose: 32.0 mg/kg/injection, schedule: Q04DX003 (ip), vehicle: saline with Tween-80, higher = longer survival) is 95 % of control; the T/C (endpoint: median survival time, dose: 64.0 mg/kg/injection, schedule: Q04DX003 (ip), vehicle: saline with Tween-80, higher = longer survival) was 102 % of control.

On to `Cc1cc(N)c2cc(NC(=O)CCCCCCCCC(=O)Nc3ccc4nc(C)cc(N)c4c3)ccc2n1`, for which the T/C runs as follows: (endpoint: mean tumor weight, dose: 12.5 mg/kg/injection, schedule: Q01DX011 (ip), vehicle: other, higher = larger tumour) 108 % of control; (endpoint: mean tumor weight, dose: 50.0 mg/kg/injection, schedule: Q01DX011 (ip), vehicle: other, higher = larger tumour) 61 % of control; (endpoint: mean tumor weight, dose: 100.0 mg/kg/injection, schedule: Q01DX011 (ip), vehicle: other, higher = larger tumour) 38 % of control; (endpoint: median survival time, dose: 0.05 mg/kg/injection, schedule: Q01DX009 (ip), vehicle: Klucel (hydroxypropylcellulose) (HPC), higher = longer survival) 105 % of control; (endpoint: median survival time, dose: 0.1 mg/kg/injection, schedule: Q01DX009 (ip), vehicle: Klucel (hydroxypropylcellulose) (HPC), higher = longer survival) 102 % of control; (endpoint: median survival time, dose: 0.19 mg/kg/injection, schedule: Q01DX009 (ip), vehicle: Klucel (hydroxypropylcellulose) (HPC), higher = longer survival) 100 % of control. Besides, the T/C (endpoint: median survival time, dose: 0.38 mg/kg/injection, schedule: Q01DX009 (ip), vehicle: Klucel (hydroxypropylcellulose) (HPC), higher = longer survival) was 105 % of control; the T/C (endpoint: median survival time, dose: 0.75 mg/kg/injection, schedule: Q01DX009 (ip), vehicle: Klucel (hydroxypropylcellulose) (HPC), higher = longer survival) was 92 % of control; the T/C (endpoint: median survival time, dose: 1.5 mg/kg/injection, schedule: Q01DX009 (ip), vehicle: Klucel (hydroxypropylcellulose) (HPC), higher = longer survival) is 96 % of control; the T/C under setting [1] is 92 % of control; the T/C (endpoint: median survival time, dose: 3.12 mg/kg/injection, schedule: Q01DX009 (ip), vehicle: Klucel (hydroxypropylcellulose) (HPC), higher = longer survival) is 94 % of control; the T/C under setting [2] is 104 % of control. The T/C reads like this: (endpoint: median survival time, dose: 12.5 mg/kg/injection, schedule: Q01DX009 (ip), vehicle: Klucel (hydroxypropylcellulose) (HPC), higher = longer survival) 105 % of control; (endpoint: median survival time, dose: 100.0 mg/kg/injection, schedule: Q01DX009 (ip), vehicle: Klucel (hydroxypropylcellulose) (HPC), higher = longer survival) 118 % of control.

On to `CCCCCOC(CN)C(Cl)(Cl)Cl` (centres undefined), for which the T/C by setting is: (endpoint: median survival time, dose: 12.5 mg/kg/injection, schedule: Q01DX009 (ip), vehicle: saline, higher = longer survival) 100 % of control; (endpoint: median survival time, dose: 25.0 mg/kg/injection, schedule: Q01DX009 (ip), vehicle: saline, higher = longer survival) 92 % of control; under setting [3], 95 % of control.

`COc1cc(N(CCCl)CCCl)ccc1NC(=O)c1ccccc1`: the T/C (endpoint: mean tumor weight, dose: 12.5 mg/kg/injection, schedule: Q01DX011 (ip), vehicle: Klucel (hydroxypropylcellulose) (HPC), higher = larger tumour) is 68 % of control and the T/C (endpoint: mean tumor weight, dose: 25.0 mg/kg/injection, schedule: Q01DX011 (ip), vehicle: Klucel (hydroxypropylcellulose) (HPC), higher = larger tumour) is 48 % of control.

`CC[C@@H]1O[C@@H]([C@@H]2CC[C@](O)([C@]3(C)CC[C@@H]([C@@H](C)[C@@]4(O)CC[C@H](C)[C@@H](C[C@@]5(O)O[C@@H]([C@@H](C)[C@H](O)C[C@H]6CC[C@H](C)[C@@H]([C@@H](C)C(=O)O)O6)CC[C@@H]5C)O4)O3)O2)CC[C@@]1(C)O`: the T/C by setting is: (endpoint: median survival time, dose: 0.12 mg/kg/injection, schedule: Q01DX009 (ip), vehicle: saline, higher = longer survival) 106 % of control; (endpoint: median survival time, dose: 0.25 mg/kg/injection, schedule: Q01DX009 (ip), vehicle: saline, higher = longer survival) 110 % of control; (endpoint: median survival time, dose: 0.5 mg/kg/injection, schedule: Q01DX009 (ip), vehicle: saline, higher = longer survival) 106 % of control; (endpoint: median survival time, dose: 1.0 mg/kg/injection, schedule: Q01DX009 (ip), vehicle: saline, higher = longer survival) 97 % of control.

Turning to `COC12C(COC(=O)NCCO)C3=C(C(=O)C(C)=C(N)C3=O)N1CC1NC12` (centres undefined), the T/C (endpoint: median survival time, dose: 3.13 mg/kg/injection, schedule: Q01DX009 (ip), vehicle: Klucel (hydroxypropylcellulose) (HPC), higher = longer survival) is 94 % of control; the T/C under setting [2] is 92 % of control; the T/C (endpoint: median survival time, dose: 25.0 mg/kg/injection, schedule: Q01DX009 (ip), vehicle: Klucel (hydroxypropylcellulose) (HPC), higher = longer survival) was 94 % of control.

`O=C(Nc1ccc(C2=NCCN2)cc1)c1ccc(C(=O)Nc2ccc(C3=NCCN3)cc2)c([N+](=O)[O-])c1`: the T/C runs as follows: (endpoint: mean tumor weight, dose: 4.0 mg/kg/injection, schedule: Q01DX011 (ip), vehicle: saline, higher = larger tumour) 122 % of control; (endpoint: mean tumor weight, dose: 8.0 mg/kg/injection, schedule: Q01DX011 (ip), vehicle: saline, higher = larger tumour) 85 % of control; (endpoint: mean tumor weight, dose: 16.0 mg/kg/injection, schedule: Q01DX011 (ip), vehicle: saline, higher = larger tumour) 26 % of control.

As for `CC(NC(=O)C1(N)CCCC1)C(=O)O` (centres undefined), the T/C is 59 % of control (endpoint: mean tumor weight, dose: 6.0 mg/kg/injection, schedule: Q01DX011 (ip), vehicle: carboxymethylcellulose (CMC), higher = larger tumour) and 60 % of control (endpoint: mean tumor weight, dose: 25.0 mg/kg/injection, schedule: Q01DX011 (ip), vehicle: carboxymethylcellulose (CMC), higher = larger tumour).

Turning to `OCC1OC(Oc2ccc(O)cc2)C(O)C(O)C1O` (centres undefined), the T/C is 95 % of control (endpoint: median survival time, dose: 50.0 mg/kg/injection, schedule: Q01DX009 (ip), vehicle: saline, higher = longer survival); 106 % of control under setting [3]; 92 % of control (endpoint: median survival time, dose: 200.0 mg/kg/injection, schedule: Q01DX009 (ip), vehicle: saline, higher = longer survival); 106 % of control (endpoint: median survival time, dose: 400.0 mg/kg/injection, schedule: Q01DX009 (ip), vehicle: saline, higher = longer survival).

As for `CC(=O)Nc1c(Cl)cc2c(c1Cl)Cc1cc([N+](=O)[O-])ccc1-2`, the T/C is 55 % of control (endpoint: mean tumor weight, dose: 20.0 mg/kg/injection, schedule: Q01DX011 (ip), vehicle: carboxymethylcellulose (CMC), higher = larger tumour) and 32 % of control (endpoint: mean tumor weight, dose: 40.0 mg/kg/injection, schedule: Q01DX011 (ip), vehicle: carboxymethylcellulose (CMC), higher = larger tumour).

As to `C[C@@H]1CC[C@@]2(NC1)O[C@H]1C[C@H]3[C@@H]4CC=C5C[C@@H](O)CC[C@]5(C)[C@H]4CC[C@]3(C)[C@H]1[C@@H]2C`, the T/C by setting is: (endpoint: mean tumor weight, dose: 12.0 mg/kg/injection, schedule: Q01DX011 (sc), vehicle: steriod suspending solution, higher = larger tumour) 73 % of control; (endpoint: mean tumor weight, dose: 16.6 mg/kg/injection, schedule: Q01DX011 (ip), vehicle: carboxymethylcellulose (CMC), higher = larger tumour) 56 % of control and 59 % of control and 70 % of control; (endpoint: mean tumor weight, dose: 18.0 mg/kg/injection, schedule: Q01DX011 (sc), vehicle: steriod suspending solution, higher = larger tumour) 75 % of control; (endpoint: mean tumor weight, dose: 40.0 mg/kg/injection, schedule: Q01DX011 (sc), vehicle: steriod suspending solution, higher = larger tumour) 94 % of control; (endpoint: mean tumor weight, dose: 50.0 mg/kg/injection, schedule: Q01DX011 (ip), vehicle: carboxymethylcellulose (CMC), higher = larger tumour) 97 % of control; (endpoint: mean tumor weight, dose: 54.0 mg/kg/injection, schedule: Q01DX011 (sc), vehicle: steriod suspending solution, higher = larger tumour) 92 % of control. The T/C is 119 % of control (endpoint: mean tumor weight, dose: 80.0 mg/kg/injection, schedule: Q01DX011 (sc), vehicle: steriod suspending solution, higher = larger tumour); 83 % of control (endpoint: mean tumor weight, dose: 100.0 mg/kg/injection, schedule: Q01DX011 (sc), vehicle: steriod suspending solution, higher = larger tumour); 58 % of control (endpoint: mean tumor weight, dose: 200.0 mg/kg/injection, schedule: Q01DX011 (sc), vehicle: steriod suspending solution, higher = larger tumour); 104 % of control (endpoint: mean tumor weight, dose: 400.0 mg/kg/injection, schedule: Q01DX011 (sc), vehicle: steriod suspending solution, higher = larger tumour).
